Results on 13 molecules are retold here after US11472769B2, “SSAO inhibitors and use thereof” (Eccogene (Shanghai) Co., Ltd., priority 2019, dated 2022).

recombinant hMAO-B, sequence (P27338 whole entry): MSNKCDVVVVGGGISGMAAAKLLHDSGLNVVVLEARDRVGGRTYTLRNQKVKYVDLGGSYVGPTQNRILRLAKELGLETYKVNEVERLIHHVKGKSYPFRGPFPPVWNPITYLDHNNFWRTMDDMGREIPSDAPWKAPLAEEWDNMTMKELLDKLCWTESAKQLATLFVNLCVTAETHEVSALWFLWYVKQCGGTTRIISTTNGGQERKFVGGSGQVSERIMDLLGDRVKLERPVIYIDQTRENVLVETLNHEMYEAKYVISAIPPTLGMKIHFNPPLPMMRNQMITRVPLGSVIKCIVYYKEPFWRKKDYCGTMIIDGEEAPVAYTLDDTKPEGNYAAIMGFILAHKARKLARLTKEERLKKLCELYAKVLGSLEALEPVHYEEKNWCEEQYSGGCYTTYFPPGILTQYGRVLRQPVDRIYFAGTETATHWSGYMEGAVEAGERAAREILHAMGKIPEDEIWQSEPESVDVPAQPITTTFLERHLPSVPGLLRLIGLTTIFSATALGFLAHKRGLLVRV

In the first test the target is recombinant hSSAO (Homo sapiens (Human), UniProt Q16853). As to the kind of experiment: SSAO Activity Assay (MAO-Glo assay kit). In kind it is biochemical. The note with it: 40 μM substrate, 30 mins pre-incubation. The method, then: (§1) The biological activities of the compounds of the present application can be assessed with methods and assays known in the art. For example, the potency of the compounds of the present application can be evaluated with an SSAO Activity Assay. Briefly, compounds of the present application can be applied to recombinant hSSAO, hMAO-A, and hMAO-B isoforms and the amine oxidase activity of the enzymes are measured after the addition and subsequent oxidation of the luminogenic substrate (e.g., with the MAO-Glo assay kit from Promega). The IC50 can be calculated, for example, by fitting the dose response curve using a 4-parameter non-linear regression routine.
recombinant hSSAO, sequence (Q16853 whole entry, canonical isoform): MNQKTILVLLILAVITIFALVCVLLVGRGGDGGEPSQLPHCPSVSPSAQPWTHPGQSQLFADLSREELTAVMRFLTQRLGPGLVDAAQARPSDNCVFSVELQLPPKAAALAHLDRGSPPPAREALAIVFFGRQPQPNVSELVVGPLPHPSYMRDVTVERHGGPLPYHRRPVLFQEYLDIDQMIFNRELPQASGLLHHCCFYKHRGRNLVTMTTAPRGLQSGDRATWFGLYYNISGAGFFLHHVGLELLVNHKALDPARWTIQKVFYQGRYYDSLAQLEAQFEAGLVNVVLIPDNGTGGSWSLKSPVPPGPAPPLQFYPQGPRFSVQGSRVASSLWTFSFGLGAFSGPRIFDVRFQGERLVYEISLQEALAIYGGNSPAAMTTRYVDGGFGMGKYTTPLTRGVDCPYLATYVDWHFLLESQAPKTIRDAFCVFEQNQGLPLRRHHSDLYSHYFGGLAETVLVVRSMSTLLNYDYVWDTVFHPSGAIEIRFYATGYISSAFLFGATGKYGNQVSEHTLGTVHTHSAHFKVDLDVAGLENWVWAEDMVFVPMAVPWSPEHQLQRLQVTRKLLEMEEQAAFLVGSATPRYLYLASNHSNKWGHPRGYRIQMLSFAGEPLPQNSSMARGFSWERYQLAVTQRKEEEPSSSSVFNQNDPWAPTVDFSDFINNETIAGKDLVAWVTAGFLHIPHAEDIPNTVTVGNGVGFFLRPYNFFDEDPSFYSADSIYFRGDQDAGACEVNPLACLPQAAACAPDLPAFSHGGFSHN
(§2) Amine oxidase activity of recombinant hSSAO, hMAO-A, and hMAO-B isoforms are measured using the MAO-Glo assay kit (Promega, V1402). Ten nL test compounds (with DMSO as vehicle, 0.1% v/v for hSSAO, hMAO-A and hMAO-B) were added into assay plates by Echo, and pre-incubated with 5 μL of enzyme for 30 mins at room temperature before the addition of 5 μL of luminogenic substrate. The substrate concentration is 40 μM for human recombinant SSAO, 40 μM for human recombinant MAO-A, and 4 μM for human recombinant MAO-B. The hSSAO and hMAO-A assays were conducted in the MAO-A reaction buffer in the kit, and the MAO-B assay was conducted in the MAO-B reaction buffer. Oxidation of the substrate was conducted for 1 hr, before the addition of detecting reagent according the manufacture's protocol. The IC50 value of the tested compounds was calculated by fitting the dose response curve using a 4-parameter non-linear regression routine.
As a reminder, the IC50 is the midpoint of a concentration-inhibition curve. Regarding `NC/C(=C\F)COc1ccc(S(=O)(=O)Cc2cnc(N3CCCC3)nc2)cc1` [compound 103, (E)-3-fluoro-2-((4-(((2-(pyrrolidin-1-yl)pyrimidin-5-yl)methyl)sulfonyl)phenoxy)methyl) prop-2-en-1-amine], the IC50 is 20 to 100 nM.

Turning to `NC/C(=C\F)COc1ccc(S(=O)(=O)CC2(CN3CCCCC3=O)CC2)cc1` [compound 106, (E)-1-((1-(((4-((2-(aminomethyl)-3-fluoroallyl)oxy)phenyl)sulfonyl)methyl)cyclopropyl)methyl)piperidin-2-one], the IC50 lay within 20 to 100 nM.

In the case of `C[C@@H](CS(=O)(=O)c1ccc(OC/C(=C/F)CN)cc1)N1CCCCC1=O` [compound 108, (S,E)-1-(1-((4-((2-(aminomethyl)-3-fluoroallyl)oxy)phenyl)sulfonyl)propan-2-yl)piperidin-2-one], the IC50 is 20 to 100 nM.

Consider `CC(C)(CN1CCOCC1)CS(=O)(=O)c1ccc(OC/C(=C/F)CN)cc1` [compound 115, (E)-2-((4-((2,2-dimethyl-3-morpholinopropyl)sulfonyl)phenoxy)methyl)-3-fluoroprop-2-en-1-amine], for which the IC50 fell in the range of 20 to 100 nM.

As for `NC/C(=C\F)COc1ccc(S(=O)(=O)CN2CCCC2=O)cc1` [compound 117, (E)-1-(((4-((2-(aminomethyl)-3-fluoroallyl)oxy)phenyl)sulfonyl)methyl)pyrrolidin-2-one], the IC50 fell in the range of 100 to 500 nM.

With `NC/C(=C\F)COc1ccc(S(=O)(=O)Cn2ccccc2=O)cc1` [compound 121, (E)-1-(((4-((2-(aminomethyl)-3-fluoroallyl)oxy)phenyl)sulfonyl)methyl)pyridin-2(1H)-one], the IC50 fell in the range of 20 to 100 nM.

`CC(C)N1CCN(CS(=O)(=O)c2ccc(OC/C(=C/F)CN)cc2)C(=O)C1` [compound 135, (E)-1-(((4-((2-(aminomethyl)-3-fluoroallyl)oxy)phenyl)sulfonyl)methyl)-4-isopropylpiperazin-2-one]: the IC50 was 20 to 100 nM.

For the molecule `NC/C(=C\F)COc1ccc(S(=O)(=O)CC23CC(C(=O)NC4CCC4)(C2)C3)cc1` [compound 138, (E)-3-(((4-((2-(aminomethyl)-3-fluoroallyl)oxy)phenyl)sulfonyl)methyl)-N-cyclobutylbicyclo[1.1.1]pentane-1-carboxamide], the IC50 was in the range of 20 to 100 nM.

Take `NC/C(=C\F)COc1ccc(S(=O)(=O)CC23CCC(C(=O)NC4CCC4)(CC2)C3)cc1` [compound 143, (E)-4-(((4-((2-(aminomethyl)-3-fluoroallyl)oxy)phenyl)sulfonyl)methyl)-N-cyclobutylbicyclo[2.2.1]heptane-1-carboxamide]: the IC50 lay within 20 to 100 nM.

The target of another test is recombinant hMAO-B (Homo sapiens (Human), UniProt P27338). As to the kind of experiment: MAO-B activity assay (MAO-Glo assay kit). It is filed as biochemical. Conditions: 4 μM substrate, 30 mins pre-incubation. As for the experimental part:
as §1, §2
On to `NC/C(=C\F)COc1ccc(S(=O)(=O)CC23CCC(C4(O)CC4)(CC2)CC3)cc1` [compound 18, (E)-1-(4-(((4-((2-(aminomethyl)-3-fluoroallyl)oxy)phenyl)sulfonyl)methyl)bicyclo[2.2.2]octan-1-yl)cyclopropan-1-ol], for which the IC50 lay in the range of 10 to 30 µM.

Consider `COCS(=O)(=O)c1ccc(OC/C(=C/F)CN)cc1` [compound 28, (E)-3-fluoro-2-((4-((methoxymethyl)sulfonyl)phenoxy)methyl)prop-2-en-1-amine], for which the IC50 lay within 10 to 30 µM.

Regarding `NC/C(=C\F)COc1ccc(S(=O)(=O)CC23CCC(C(=O)NC4CCC4)(CC2)CC3)cc1` [compound 64, (E)-4-(((4-((2-(aminomethyl)-3-fluoroallyl)oxy)phenyl)sulfonyl)methyl)-N-cyclobutylbicyclo[2.2.2]octane-1-carboxamide], the 50% inhibitory concentration (IC50) lay in the range of 10 to 30 µM.

Take `NC/C(=C\F)COc1ccc(S(=O)(=O)CC23CCC(NC(=O)C4CC4)(CC2)CC3)cc1` [compound 76, (E)-N-(4-(((4-((2-(aminomethyl)-3-fluoroallyl)oxy)phenyl)sulfonyl)methyl)bicyclo[2.2.2]octan-1-yl)cyclopropanecarboxamide]: the IC50 is 10 to 30 µM.
